Earlier results on two substances are cited in publication PMC6168745 (Diabetes, Obesity & Metabolism, 2016).

Data set [1] relates to people with type 2 diabetes.
Data set [2] relates to participants with type 2 diabetes. The settings on record: + insulin glargine + metformin; CGM.

In the case of liraglutide, in data set [1] (once daily, comparative trials with insulin), the “MAGE, large amplitude of glycaemic excursions and within-day s.d. of mean daily glucose” value is reported as “significantly reduced”. In data set [1] (small uncontrolled study of Japanese people with type 2 diabetes), the MAGE from baseline entry is “significantly reduced”.

In the case of exenatide [Twice‐daily exenatide], in data set [2], the “glucose CV and MAGE compared with prandial insulin” value is reported as “significantly reduced”.
